Reference: US9181196B2, “Pharmaceutical compounds” (KEMOTECH S.r.l., priority 2013, dated 2015)

Columns and labels:
[1] = target: FGF-2 (Homo sapiens, UniProt P09038); experiment: Competition with biotinylated TS3R domain for binding to immobilized FGF-2 (DELFIA); details: for % TS3R/FGF-2 binding vs. control: control = 100% binding, average of 3 experiments
From the text: For the evaluation of the binding of the compounds of the invention to FGF-2, the test described in G. Colombo et al. J. Biol. Chem., 285: 8733, 2010 has been used. In this reference the binding test has been used to assay the binding of compound sm27 to FGF-2. Specifically, the test allows to evaluate the capability of the compounds under examination to compete with the biotinylated TS3R domain (the recombinant part of Thrombospondine 1 (TSP-1) containing the bond sequence for FGF-2), for the binding to FGF-2 immobilized on a plastic support.
In detail, FGF-2 (0.1 μg) has been immobilized on 96 well plates (DELFIA microtitration plates, Perkin Elmer) leaving into contact for one night at 4° C. by using known techniques. After saturation of the non specific sites with 1% BSA, the compounds to be tested and then the biotinylated TS3R domain (10 nM) in PBS 1% BSA were added. After a period of incubation of 3 hours, the plate was washed and treated with Eu-Labeled Streptavidin 1:1000 and incubated again for one further hour. The amount of TS3R bound to FGF was determined with DELFIA Enhancement Solution, measuring the resolved fluorescence (Victor, PerkinElmer).
The test was carried out on the compounds of examples 2, 4, 8, 10 and 12. The used concentrations were respectively of 10 and 100 μM. The obtained results are reported in Table 1 and have been expressed as inhibition percentage of the TS3R/FGF-2 binding induced by the compounds of the invention vs. the control (TS3R/FGF-2 binding in the absence of the compounds of the invention). As a reference compound sm27 was used and assayed at a concentration of 100 μM. […] The compounds of the invention in this test are as effective as sm27 at the assayed dose of 100 μM.
By using the test in vitro described in example 17 the binding to FGF-2 of the compounds (2p) and (2r) having the formulas herein below reported, has been assayed. These compounds are disclosed by G. A. Pinna et al. on Il Farmaco 58 (2003) 749-763.

[2] = system: Aorta sections (angiogenesis induced by FGF-2); experiment: Angiogenesis test ex vivo (aorta section), FGF-2 induced sprouting in Matrigel; assay type: cell-based, C57BL/6 mice; details: for Sprouting area (% vs. control): FGF-2 30 ng/ml, eleven days, control = 100%
Description: Aorta sections (aorta rings of about 1 mm) taken from C57BL/6 mice, are dipped in a Matrigel gel (BD Biosciences), in 96 well plates, in DMEM 5% FCS containing FGF-2 (30 ng/ml) together with the compounds of the invention at concentrations in the range indicated herein below. By using an inverted microscope (IX70; Olympus) after some days it is observed in the plate the formation of a network of capillary structures irradiating from the aorta section. Images were taken and analyzed by ImageJ 1.41. After eleven days from the beginning of the experiment the angiogenic response is quantified as sprouting area, therefore subtracting the area of the aorta section.
The compounds of the examples 2, 4 and 10 and, as a reference, the reference compound sm27 at concentrations comprised between 50 and 100 μM were used. In Table 4 the results are reported, expressed as a percent variation (decrease) of the sprouting area with respect to that of the control (presence of FGF-2 only).
In FIG. 1 the aorta sections are reported, analyzed after eleven days in absence (left photo—(a)) or in the presence (right photo (b)) of the compound obtained in example 10 (concentration 100 μM). […]

[3] = system: BAEC cells; experiment: Inhibition of the proliferation of endothelial cells induced by FGF-2 (Crystal Violet); assay type: cell-based, Bovine; details: Table 6; 100 μM; expressed as in Table 2; average of 3 experiments
[4] = target: T1, FGF-2 binding to BAEC cells (Bovine Aortic Endothelial Cells) (Homo sapiens, UniProt P09038); experiment: Inhibition of the binding of europium-labelled FGF-2 to endothelial cells; assay type: cell-based; details: 100 μM; control = 100% binding; average of 3 experiments
T1 construct: host or cells: added exogenously to BAEC (Bovine Aortic Endothelial Cells)
Description: Sub-confluent BAEC cells (Bovine Aortic Endothelial Cells), in 96 well plates, were incubated with DMEM without serum for 30 minutes at 4° C. The compound of the invention to be assayed and FGF-2, labelled with europium (FGF-Eu, 10 ng/ml), were added in DMEM containing 0.15% gelatine and HEPES 25 mM. The plate was incubated for 2 hours at 4° C. After washings with cold medium, the amount of FGF-Eu bound to the cells was determined with DELFIA Enhancement Solution by measuring the time resolved fluorescence (Victor, PerkinElmer).
The compounds obtained in examples 2, 4, 8 and 10 were used at a concentration of 100 μM. As a reference the compound sm27 was used. The obtained results are reported in Table 2 and are expressed as inhibition percentage of the FGF-2 binding to endothelial cells induced by the compounds of the invention and by sm27 vs. the control (FGF-2 bond to endothelial cells in absence of inhibition). The value obtained with the control was assumed as 100% binding.
Example 18 has been repeated by using the two compounds of the prior art (2p) and (2r).

[5] = system: BAEC cells; experiment: Inhibition of the proliferation of endothelial cells induced by FGF-2 (Crystal Violet); assay type: cell-based, Bovine; details: FGF-2 5 ng/ml, 72 h
Description: BAEC cells (25000/ml) in DMEM 1.5% FCS were sown in 96 well plates. After 24 h the culture medium was substituted with DMEM 0.5% FCS containing the compounds of the invention at different concentrations in the range indicated herein below, and FGF-2 (5 ng/ml) or 10% FCS, added as stimulator of the cellular proliferation. After 72 h of incubation, the cells were fixed and stained with Crystal Violet, (Sigma). The stain was then eluted by using a solution 1:1 of ethanol and sodium citrate 0.1M and the absorption of the solution determined at the wave length of 540 nm.
In this test the compounds of examples 2, 4, 8 and 10 were used. For each compound several concentrations comprised between 10 and 100 μM were prepared. The obtained results are reported in Table 3 and have been given as percent reduction of the cellular proliferation of endothelial cells in the presence of FGF-2, induced by the compounds of the invention, with respect to the control (proliferation in the presence of FGF-2 only).

T1 sequence (P09038 143-288): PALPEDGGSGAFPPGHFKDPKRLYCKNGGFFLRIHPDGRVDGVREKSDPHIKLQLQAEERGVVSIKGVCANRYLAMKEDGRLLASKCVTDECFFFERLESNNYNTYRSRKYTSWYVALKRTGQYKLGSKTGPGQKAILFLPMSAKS
Chain of FGF-2 (P09038 143-288, species assumed): as the sequence (P09038 143-288) above

SMILES | % TS3R/FGF-2 binding vs. control ([1]; 100 μM) [%] | % TS3R/FGF-2 binding vs. control ([1]; 10 μM) [%] | Inhibition of the FGF-2 binding to endothelial cells (% binding FGF-2/endothelial cells vs. control) [4] [%] | Binding to FGF-2 / inhibition of TS3R/FGF-2 binding, in words ([1]; 100 μM) | Inhibition of the angiogenesis induced by FGF-2 (aorta ring), in words [2] | Sprouting area (% vs. control) ([2]; 100 μM) [%] | Cell proliferation (% vs. control) [3] [%] | Cell proliferation (% vs. control) ([5]; 10 μM, control = 100%) [%] | Cell proliferation (% vs. control) ([5]; 50 μM, control = 100%) [%] | Cell proliferation (% vs. control) ([5]; 100 μM) [%] | Sprouting area (% vs. control) ([2]; 50 μM) [%] | Sprouting area (% vs. control) ([2]; 75 μM) [%]
O=C(NCCCNC(=O)c1nn(-c2ccc(Cl)cc2Cl)c2c1Cc1cc(S(=O)(=O)O)sc1-2)c1nn(-c2ccc(Cl)cc2Cl)c2c1Cc1cc(S(=O)(=O)O)sc1-2 [Example 2, 3,3′-(propane-1,3-diylbis(azanediyl))bis(oxomethylene)bis(1-(2,4-dichlorophenyl)-1,4-dihydro-thieno[3′,2′:4,5]cyclopenta[1,2-c]pyrazole-6-sulfonic acid)] | 13 ± 3 | 25 ± 3 | 22 ± 3 |  |  | 1.8 ± 0.7 |  | 90 ± 3 | 20 ± 4 | 8 ± 3 | 43.9 ± 9 | 10.5 ± 5
O=C(NCCCCCCNC(=O)c1nn(-c2ccc(Cl)cc2Cl)c2c1Cc1cc(S(=O)(=O)O)sc1-2)c1nn(-c2ccc(Cl)cc2Cl)c2c1Cc1cc(S(=O)(=O)O)sc1-2 [Example 4, 3,3′-(hexane-1,6-diylbis(azanediyl))bis(oxomethylene)bis(1-(2,4-dichlorophenyl)-1,4-dihydro-thieno[3′,2′:4,5]cyclopenta[1,2-c]pyrazole-6-sulfonic acid)] | 20 ± 1 | 40 ± 2 | 30 ± 3 |  |  | 15.8 ± 4 |  | 92 ± 4 | 70 ± 6 | 30 ± 7 |  | 21.0 ± 5
O=C(Nc1ccc2cc(S(=O)(=O)O)cc(O)c2c1)Nc1ccc2cc(S(=O)(=O)O)cc(O)c2c1 [sm27, reference compound] | 17 ± 5 |  | 40 ± 2 |  |  | 44.0 ± 8 |  |  |  | 60 ± 6 |  | 

Second part, led by results:

% TS3R/FGF-2 binding vs. control ([1]; 100 μM) [%] | % TS3R/FGF-2 binding vs. control ([1]; 10 μM) [%] | Inhibition of the FGF-2 binding to endothelial cells (% binding FGF-2/endothelial cells vs. control) [4] [%] | SMILES | Binding to FGF-2 / inhibition of TS3R/FGF-2 binding, in words ([1]; 100 μM) | Inhibition of the angiogenesis induced by FGF-2 (aorta ring), in words [2] | Sprouting area (% vs. control) ([2]; 100 μM) [%] | Cell proliferation (% vs. control) [3] [%] | Cell proliferation (% vs. control) ([5]; 10 μM, control = 100%) [%] | Cell proliferation (% vs. control) ([5]; 50 μM, control = 100%) [%] | Cell proliferation (% vs. control) ([5]; 100 μM) [%] | Sprouting area (% vs. control) ([2]; 50 μM) [%] | Sprouting area (% vs. control) ([2]; 75 μM) [%]
96 ± 3 |  |  | CN(CCCNC(=O)c1nn(-c2ccccc2)c2c1Cc1ccccc1-2)CCCNC(=O)c1nn(-c2ccccc2)c2c1Cc1ccccc1-2 [Compound (2p), reference compound] | do not show any significant binding to FGF-2 | do not result active in inhibiting the angiogenesis induced by FGF-2 | 95.5 ± 5 | 97 ± 4 |  |  |  |  | 
98 ± 6 |  |  | CN(CCCNC(=O)c1nn(-c2ccc(Cl)cc2Cl)c2c1Cc1ccccc1-2)CCCNC(=O)c1nn(-c2ccc(Cl)cc2Cl)c2c1Cc1ccccc1-2 [Compound (2r), reference compound] | do not show any significant binding to FGF-2 | do not result active in inhibiting the angiogenesis induced by FGF-2 | 91.1 ± 6 | 94 ± 6 |  |  |  |  | 
25 ± 4 | 61 ± 5 | 28 ± 4 | Cc1ccc(Cn2nc(C(=O)NCCCCCCNC(=O)c3nn(Cc4ccc(C)cc4)c4c3Cc3cc(S(=O)(=O)O)sc3-4)c3c2-c2sc(S(=O)(=O)O)cc2C3)cc1 [Example 8, 3,3′-(hexane-1,6-diylbis(azanediyl))bis(oxomethylene)bis(1-(4-methylbenzyl)-1,4-dihydro-thieno[3′,2′:4,5]cyclopenta[1,2-c]pyrazole-6-sulfonic acid)] |  |  |  |  | 95 ± 2 | 80 ± 4 | 36 ± 5 |  | 
